Values quoted from earlier work as cited in patent US20050221324A1, “Genotoxicity analysis” (priority 2002, published 2005).

System: AL cells
Settings: producing mainly chromosomal mutations; non-genotoxic carcinogens

Which “mutagenicity in AL cells” value does the source give for arsenic here?
Its value is “quite strong mutagens”.
